Read-outs that look alike come from different tables or passages of the source.
Experiments:
[1] = Water solubility (exploratory, 10 mM Tris-HCl, 20 °C); assay type: physicochemical; conditions: water (10 mM Tris-HCl buffer), pH 7.4
Method: The exploratory water solubilities of the compounds were determined at room temperature (20° C.) in 0.5 mL buffer solution (10 mM Tris-HCl) in the microcentrifuge tubes (Eppendorf, 2.0 mL safe-lock caps). The solid compounds were added stepwise to the buffer solution. The suspension was mixed using a shaker (Heidolph Reax 2000) and treated 5 min in an ultrasound bath (Bandelin, Sonorex Super RK255H).

[2] = Relaxivity measurements at 1.4 T (MiniSpec mq60, 60 MHz, 37 °C) in water and human plasma; assay type: physicochemical; conditions: 1.41 T, normalized to Gd
Method: Relaxivity Measurements at 1.4 T
Relaxivity measurements at 1.41 T were performed using a MiniSpec mq60 spectrometer (Bruker Analytik, Karlsruhe, Germany) operating at a resonance frequency of 60 MHz and a temperature of 37° C. The T1 relaxation times were determined using the standard inversion recovery (IR) method with a fixed relaxation delay of at least 5×T1. The variable inversion time (TI) was calculated automatically by the standard software of the MiniSpec mq60 (8 steps). The T2 measurements were done by using a Carr-Purcell-Meiboom-Gill (CPMG) pulse sequence, applying a relaxation delay of at least 5×T1.
Each relaxivity measurement was performed using three different Gd concentrations (3 concentrations between 0.05 and 2 mM). The T1 and T2 relaxation times of the example compounds 1 to 10 were measured in different media for example in water and human plasma. Human plasma preparation: For each experiment fresh blood was taken from a volunteer using 10 mL citrate-tubes (Sarstedt S-Monovette 02.1067.001, 10 mL, Citrate). The 10 mL citrate-tubes were carefully inverted 10 times to mix blood and anticoagulant and centrifuged for 15 minutes at 1811 g at room temperature (Eppendorf, Centrifuge 5810R).
The relaxivities ri (where i=1, 2) were calculated on the basis of the measured relaxation rates Ri in water and plasma: Ri=Ri(0)+ri[CGd], where Ri(0) represent the relaxation rate of the respective solvent and CGd the concentration of the compound normalized to the Gadolinium. The Gadolinium concentrations of the investigated solutions were verified by Inductively Coupled Plasma Mass Spectrometry (ICP-MS Agilent 7500a, Waldbronn, Germany).

[3] = Relaxivity measurements at 3.0 T (whole body MRI scanner, 37 °C) in water and human plasma; assay type: physicochemical; conditions: normalized to Gd, average ± standard deviation
Method: Relaxivity Measurements at 3.0 T
Relaxivity measurements at 3.0 T were performed with a whole body 3.0 T MRI Scanner (Philips Intera, Philips Healthcare, Hamburg, Germany) using a knee-coil (SENSE-Knee-8, Philips Healthcare, Hamburg, Germany). The sample tubes (CryoTubetm Vials, Thermo Scientific 1.8 mL, Roskilde, Denmark) were positioned in 3 rows of 4 and 5 tubes in a plastic holder in a box filled with water. The temperature was adjusted to 37° C. For the MRI sequence the shortest possible echo-time (TE) with 7.46 milliseconds was used. The inversion times were chosen to optimize the sequence to measure T1 values corresponding to the estimated T1 range of all relaxation times of contrast media containing solutions. The following inversion times (TIs) were applied: 50, 100, 150, 200, 300, 500, 700, 1000, 1400, 2100, 3200, and 4500 milliseconds. The sequence was run with a constant relaxation delay of 3.4 seconds after the registration of the last echo (variable TR in the range from 3450 to 7900 milliseconds). For details of the fit procedure, see Rohrer et. al. (Invest. Radiol. 2005; 40, 11: 715-724). The experimental matrix of the phantom measurement was 320×320.
The relaxivities were evaluated using three different concentrations of each compound (3 concentrations between 0.05 and 2 mM).
The T1 relaxation times of Example compounds were measured in water and human plasma. Human plasma preparation: For each experiment fresh blood was taken from a volunteer using 10 mL citrate-tubes (Sarstedt S-Monovette 02.1067.001, 10 mL, Citrate). The 10 mL citrate-tubes were carefully inverted 10 times to mix blood and anticoagulant and centrifuged for 15 minutes at 1811 g at room temperature (Eppendorf, Centrifuge 5810R).
The relaxivities ri (where i=1, 2) were calculated on the basis of the measured relaxation rates Ri in water and plasma: Ri=Ri(0)+ri[CGd], where Ri(0) represent the relaxation rate of the respective solvent and CGd the concentration of the compound normalized to the Gadolinium (Table 2).

[4] = Dynamic CT diffusion phantom study (dialysis cassette in fetal bovine serum); assay type: physicochemical; conditions: dialysis cassette 20,000 MWCO, 20 mmol Gd/L, CT signal over 30 h
Method: The described dynamic CT diffusion study compares the ability of Examples 1-10 and Reference compounds 1 and 4 to pass a semipermeable membrane (20 kDa). A 128-row clinical CT device (SOMATOM Definition, 128; Siemens Healthcare, Forchheim, Germany) was used to monitor the diffusion through a semipermeable membrane at 100 kV and 104 mA. Single measurements were performed at 0 min, 1 min, 2 min, 3 min, 5 min, 10 min, 15 min, 20 min, 30 min, 45 min, 60 min, 2 h, 3 h, 5 h, 7 h, 22 h, 24 h, 30 h after placing the dialysis cassette (Slide-A-Lyser, 20,000 MWCO, 0.1-0.5 mL Capacity, Thermo Scientific, Roskilde, Denmark) filled with contrast agent in fetal bovine serum solution (FBS, Sigma, F7524). The images were reconstructed with a slice thickness of 2.4 mm and a B30 convolution kernel. The used concentration in the dialysis cassettes of the investigated Examples 1-10 and Reference compounds 1 and 4 was 20 mmol Gd/L.
The imaging results for all investigated Examples and the Reference compounds 1 and 4 for the time points 0 min and 30 h after placing the cassettes in the FBS solution are depicted in FIG. 1. For image analysis, regions of interest were manually drawn on 1 centrally located slice for each time point (a representative measurement region is indicated in FIG. 1: Image RC1).

[5] = Contrast-enhanced magnetic resonance angiography (CE-MRA) at 1.5 T, intraindividual comparison; assay type: in vivo, New Zealand white rabbits; conditions: rabbits, 25 μmol Gd/kg bw versus standard dose 100 μmol/kg and example compound 6 at 25 μmol/kg
Method: Reference compound 1 (Gadovist®), as an approved representative of the Gadolinium-based MRI contrast agents, was used in both dose protocols (100 μmol Gd/kg bw and 25 μmol Gd/kg bw) and compared to example compound 6 (25 μmol Gd/kg bw).
The contrast-enhanced magnetic resonance angiography study was performed at a clinical 1.5 T Scanner (Magnetom Avanto Fit, Siemens Healthcare, Erlangen, Germany). For optimal signal exploitation, a spine in combination with a body-flex coil was used for the data acquisition. The study was performed on male New Zealand white rabbits (weight 3.6-3.9 kg, n=4, Charles River Kisslegg). The animals received all 3 contrast protocols within one imaging session. The order of the contrast protocols was randomized between the animals.
All animals are initially anesthetized using a body weight-adjusted intramuscular injection of a mixture (1+2) of xylazine hydrochloride (20 mg/mL, Rompun 2%, Bayer Vital GmbH, Leverkusen, Germany) and ketamine hydrochloride (100 mg/mL, Ketavet, Pfizer, Pharmacia GmbH, Berlin, Germany) using 1 mL/kg body weight. The continuous anesthesia of the intubated animals (endotracheal tube, Rueschelit Super Safe Clear, cuff 3.0 mm, Willy Ruesch A G, Kernen, Germany) is achieved by the intravenous injection of 0.9 mg propofol per kilogram per hour (10 mg/mL, Propofol-Lipuro 1%, B. Braun Melsungen A G, Melsungen, Germany). The continuous intravenous injection is performed using a MR infusion system (Continuum MR Infusion System, Medrad Europe B. V., A E Beek, Germany). The tracheal respiration (SV 900C, Maquet, Rastatt, Germany) is performed with 55% oxygen, forty breaths per minute, and a breathing volume of 4 mL per kilogram body weight per minute.
Based on a localizer MRI sequence oriented in coronal, axial, and sagittal directions the anatomic course of the aorta is acquired. A small intravenous test bolus (0.2 mL, Reference compound 1 followed by 1.3 mL saline) was administered to determine the time to peak interval (descending aorta) using a test bolus sequence. The MRA delay time between the start of the contrast injection and the start of image acquisition was calculated by subtracting the time to k-space center from the time to peak interval. For MRA a 3D FLASH sequence (TR=3.3 ms, TE=1.2 ms, flip=25°) was acquired before and after injection of the contrast agent considering the delay time. Both measurements were performed within expiratory breath hold. The time interval for the intraindividual comparison between the different contrast agent applications was twenty to thirty minutes.
Quantitative image evaluation was performed on the subtraction images (post contrast—baseline). […]

[6] = Pharmacokinetic parameters of blood plasma levels after i.v. bolus in male rats (three compartment model); assay type: in vivo, rats (Han-Wistar); conditions: i.v. bolus 0.1 mmol Gd/kg, mean, n=3
Method: Pharmacokinetic parameters of Example 6 were determined in male rats (Han-Wistar, 235-270 g, n=3). The compound was administered as a sterile aqueous solution (53.8 mmol Gd/L) as a bolus in the tail vein of the animals. The dose was 0.1 mmol Gd/kg. Blood was sampled 1, 3, 5, 10, 15, 30, 60, 90, 120, 240, 360, 480, and 1440 min post injection and the Gd concentration was determined by Inductively Coupled Plasma Mass Spectrometry (ICP-MS Agilent 7500a, Waldbronn, Germany). The blood level was converted to plasma concentrations by division by 0.625 (plasma fraction of rat blood, assuming strictly extracellular distribution). As a control, 3 animals (Han-Wistar, 248-289 g), were treated in the same way with Reference Compound 1 (Gadovist®), a low molecular weight contrast agent.
The fit of the obtained data to a three compartment model (Phoenix-WinNonlin) yielded the pharmacokinetic parameters which are shown in Table 3.

[7] = 37 °C, cited from earlier work

SMILES | Solubility [1] | r1 human plasma ([2]; human plasma) | r1 water ([2]; water) | r1 human plasma ([3]; human plasma) | r1 water ([3]; water) | Diffusion half-live (20 kDa) [4] | vascular contrast at the reduced dose (25 μmol/kg) of the reference compound [5] | AUC∞ Area under the curve (to infinity) [6] | MRT Mean residence time [6] | V1 + V2 Volume, compartments V1 + V2 [6] | V2 Volume, compartment V2 [6] | Vd, ss Volume of distribution at steady state [6] | t½ α Half-life, compartment V1 [6] | t½ β Half-life, compartment V2 [6] | t½ γ Half-life, compartment V3 [6] | r1 human plasma ([7]; 1.5 T, bovine plasma instead of human plasma, from Rohrer et al.) | r1 water ([7]; 1.5 T, from Rohrer et al.) | r1 human plasma ([7]; 3.0 T, plasma, reference compounds marked ^ (Rohrer et al., bovine plasma per Table 1 footnote)) | r1 water ([7]; 3.0 T, reference compounds marked ^ (Rohrer et al. per Table 1 footnote))
O=C([O-])CN1CCN(CC(=O)[O-])CCN(CC(=O)N(CC(=O)NCC(CNC(=O)CN(C(=O)CN2CCN(CC(=O)[O-])CCN(CC(=O)[O-])CCN(CC(=O)[O-])CC2)C2CC2)(CNC(=O)CN(C(=O)CN2CCN(CC(=O)[O-])CCN(CC(=O)[O-])CCN(CC(=O)[O-])CC2)C2CC2)CNC(=O)CN(C(=O)CN2CCN(CC(=O)[O-])CCN(CC(=O)[O-])CCN(CC(=O)[O-])CC2)C2CC2)C2CC2)CCN(CC(=O)[O-])CC1.[Gd+3].[Gd+3].[Gd+3].[Gd+3] [Example 7, Tetragadolinium [4,10-bis(carboxylatomethyl)-7-{3,13-dicyclopropyl-8,8-bis({[(cyclopropyl{[4,7,10-tris(carboxylatomethyl)-1,4,7,10-tetraazacyclododecan-1-yl]acetyl}-amino)acetyl]amino}methyl)-2,5,11,14-tetraoxo-15-[4,7,10-tris(carboxylatomethyl)-1,4,7,10-tetraazacyclododecan-1-yl]-3,6,10,13-tetraazapentadec-1-yl}-1,4,7,10-tetra-azacyclododecan-1-yl]acetate] | >1000 mg/100 mL | 12.1 L/mmol/s | 10.6 L/mmol/s | 11.1 ± 0.1 L/mmol/s | 9.7 ± 0.1 L/mmol/s | 14.0 h | – | – | – | – | – | – | – | – | – | – | – | – | –
O=C([O-])CN1CCN(CC(=O)[O-])CCN([C@H](CO)[C@H](O)CO)CCN(CC(=O)[O-])CC1.[Gd+3] (racemic) [RC1, gadobutrol, reference compound] | – | – | – | – | – | 2.1 h | considerable lower | 11334 µmol·min/L | 40.5 min | 0.11 L/kg | 0.16 L/kg | 0.26 L/kg | 1.80 min | 22.1 min | 780 min | 5.2 L/mmol/s | 3.3 L/mmol/s | 5.0 ± 0.3 L/mmol/s | 3.2 ± 0.3 L/mmol/s
